Measurements reported in a melting point compilation (Tetko et al.).

Row | SMILES | melting point
1 | COc1ccc(CC2CCNCC2)cc1 | 55 to 57 °C
2 | COC(=O)c1nc2ccccc2[nH]1 | 189 to 191 °C
3 | O=C(O)c1sc(-c2ccccc2)nc1C(F)F | 179 to 181 °C
4 | Cn1cc(C(=O)CBr)c2ccccc21 | 132 to 134 °C
5 | NC(=NO)C1CCCCC1 | 89 to 91 °C
6 | O=C(CCl)c1ccc(F)c(Cl)c1 | 37 to 39 °C
7 | COCCCNc1c(N)n(CC(C)C)c(=O)[nH]c1=O | 179 to 181 °C
8 | CN1CCc2nc(N)sc2C1 | 168 to 170 °C
9 | CS(=O)(=O)c1cccc(C(=O)c2cc(F)ccc2F)c1 | 87 to 89 °C
10 | CC1(c2ccc(S(C)(=O)=O)cc2)CO1 (stereo not drawn) | 96 to 98 °C
11 | NNc1ccccc1S(=O)(=O)N1CCOCC1 | 141 to 143 °C
12 | Cc1[nH]c2ccc(Cl)cc2c1C=O | 248 to 250 °C
13 | Cc1cc(O)cc(=O)n1C1CC1 | 264 to 266 °C
14 | Cc1cc(F)cc2c(=O)c(C(=O)O)c[nH]c12 | 289 to 291 °C
15 | COc1cc(OC)cc(C(O)CN)c1 (stereo not drawn) | 92 to 94 °C
16 | CC(C)C(O)(C(=O)O)c1ccccc1 (stereo not drawn) | 148 to 150 °C
17 | O=C(O)C(Oc1ccc(F)cc1F)c1ccccc1 (stereo not drawn) | 96 to 98 °C
18 | O=C(O)C=Cc1cccc(OC2CCCCC2)c1 | 96 to 98 °C
19 | CC(=O)c1c[nH]c(C(=O)O)c1 | 201 to 203 °C
20 | Cc1nonc1C(=O)O | 69 to 71 °C
21 | NNC(=O)c1ccc(Cl)cc1F | 135 to 137 °C
22 | Cn1c(S)nnc1C1CC1 | 180 to 182 °C
23 | COc1ccc(Nc2nnc(S)s2)cc1 | 184 to 186 °C
24 | CN(C)CCN1C(=O)C(=O)c2cc(Br)ccc21 | 102 to 104 °C
25 | O=C(O)C1CCN(C(=O)N2CCCC2)CC1 | 144 to 146 °C
26 | Cc1cc(Br)cn2c(C=O)cnc12 | 152 to 154 °C

Row | SMILES | melting point
27 | Cc1noc(C)c1CSc1ccccc1C(=O)O | 192 to 194 °C
28 | CCOc1cccc(F)c1[N+](=O)[O-] | 34 to 36 °C
29 | Cc1nc(Cl)c(C)c(-n2cccn2)n1 | 61 to 63 °C
30 | COC(=O)c1ccc(F)c(S(=O)(=O)Cl)c1 | 48 to 50 °C
31 | Nc1ncc(Cc2c(Cl)cccc2Cl)s1 | 139 to 141 °C
32 | COc1ccc(C(N)=O)cc1F | 169 to 171 °C
33 | CCOC(=O)COc1ccc(Cl)c2cccnc12 | 113 to 115 °C
34 | O=C(O)c1cccc(S(=O)(=O)Nc2ccc3c(c2)OCO3)c1 | 249 to 251 °C
35 | Nc1cccc(NC(=O)C2CC2)c1 | 133 to 135 °C
36 | CC(Cl)C(=O)Nc1ccc(Cl)c(C(F)(F)F)c1 (stereo not drawn) | 130 to 135 °C
37 | Cn1cc(Nc2cccc(N)c2)cn1 | 92 to 94 °C
38 | O=C(CCl)c1ccc[nH]1 | 114 to 116 °C
39 | Nc1cccc(-n2cc[nH]c2=O)c1 | 155 to 157 °C
40 | CC(C)(C)OC(=O)N1CCc2c(sc(N)c2C#N)C1 | 202 to 204 °C
41 | OC1(CCOc2ccccc2)CC1 | 57 to 59 °C
42 | ClCc1coc(-c2ccc(Br)cc2)n1 | 112 to 114 °C
43 | O=C(O)c1ccc2[nH]c(=O)c(=O)[nH]c2c1 | 250 to 252 °C
44 | CC(C)(C)OC(=O)Nc1ccsc1Br | 69 to 71 °C
45 | CC(C)S(=O)(=O)C(C)C(=O)O (stereo not drawn) | 96 to 98 °C
46 | NNC(=O)c1cccc(S(=O)(=O)Nc2ccc(Cl)cc2)c1 | 191 to 193 °C
47 | COC(=O)c1cc2ccc(Cl)cc2[nH]1 | 181 to 183 °C
48 | CCCCOc1c(Cl)cc(C(=O)O)cc1OCC | 89 to 91 °C
49 | Cc1ccc(N2C(=O)CSC2=S)cc1 | 168 to 170 °C
50 | O=Cc1c(Cl)cccc1N1CCCC1 | 69 to 71 °C
51 | COC(=O)CNc1ccncc1[N+](=O)[O-] | 104 to 106 °C
52 | Nc1ccc(N2CCNC2=O)cc1 | 171 to 173 °C

Row | SMILES | melting point
53 | Cc1cc(S(N)(=O)=O)cc(N)c1C | 159 to 161 °C
54 | COc1ccc(C(C)=O)cc1NC(C)=O | 120 to 122 °C
55 | COc1ccc(C(=O)NCCCC(=O)O)cc1 | 122 to 124 °C
56 | CCC(C)NS(=O)(=O)c1ccc(C(=O)O)cc1 (stereo not drawn) | 219 to 221 °C
57 | COCCNc1nnnn1C | 59 to 61 °C
58 | COc1ccc(CN2C(=O)NC(=O)C2=O)cc1 | 168 to 170 °C
59 | CC(N)c1ccc(OCC(=O)NC2CC2)cc1 (stereo not drawn) | 75 to 77 °C
60 | O=C(Nc1ccc(F)cc1)c1ccc2c(c1)OCO2 | 186 to 188 °C
61 | CNc1ccc(Br)cn1 | 69 to 71 °C
62 | O=C(O)CSc1ccccc1O | 51 to 53 °C
63 | Cc1nn(-c2cccc(C(F)(F)F)c2)c(C)c1C(=O)C(=O)O | 191 to 193 °C
64 | CCN(c1ccccc1)S(=O)(=O)c1ccc(Cl)nc1 | 81 to 83 °C
65 | COc1cc(C(=O)Cc2nc3ccccc3n2C(F)F)cc(OC)c1OC | 112 to 114 °C
66 | CC(O)c1ccc(S(=O)(=O)Nc2ccc(C(=O)O)cc2)cc1 (stereo not drawn) | 199 to 201 °C
67 | N#Cc1ccc(NC(=O)OCC(F)(F)F)cc1 | 143 to 145 °C
68 | CCC1(C)NC(=O)N(N)C1=O (stereo not drawn) | 153 to 155 °C
69 | O=C(O)CNC(=O)c1ccncc1 | 230 to 232 °C
70 | O=C(Nc1nncs1)C1CCCNC1 (stereo not drawn) | 186 to 188 °C
71 | Fc1ccccc1-c1nnc2ccc(Cl)nn12 | 164 to 166 °C
72 | Cc1cccn2cc(COc3ccc(C=O)cc3)nc12 | 122 to 124 °C
73 | Cc1c(S(N)(=O)=O)sc2c(Cl)cccc12 | 261 to 263 °C
74 | CC(C)CNc1nc(-c2ccccc2[N+](=O)[O-])cs1 | 86 to 88 °C
75 | O=C(O)c1cc2ccccc2n1Cc1ccccc1 | 197 to 199 °C
76 | O=C(O)CN1CCCOC1=O | 172 to 174 °C
77 | Cc1ccc(C(C)(C)C)cc1S(N)(=O)=O | 138 to 140 °C
78 | NC(=O)COc1ccc(C=O)cc1 | 134 to 136 °C

Row | SMILES | melting point
79 | Cc1ccc(-n2nnnc2S)cc1 | 112 to 114 °C
80 | Cc1ccc(CCC(=O)NCC(=O)O)cc1 | 118 to 120 °C
81 | NS(=O)(=O)N1CCCCC1 | 121 to 123 °C
82 | CC(C)(C)c1ccc(C(O)CCC(=O)O)cc1 (stereo not drawn) | 127 to 129 °C
83 | CS(=O)(=O)c1ccc(F)c(N)c1 | 69 to 71 °C
84 | COc1cc(C=O)ccc1OCc1ccc(Br)cc1 | 74 to 76 °C
85 | CC(C)(C)OC(=O)N1CCN(CC(O)c2ccco2)CC1 (stereo not drawn) | 57 to 59 °C
86 | COc1ccc(Oc2ccc(C=O)cc2[N+](=O)[O-])cc1 | 67 to 69 °C
87 | O=C(O)Cc1coc2ccc3ccccc3c12 | 166 to 168 °C
88 | NC(=O)c1cc(C(=O)O)c[nH]1 | 344 to 346 °C
89 | O=C1NC(=O)c2cc(Cl)c(Cl)cc21 | 217 to 219 °C
90 | CCn1cc(Br)cc1C(=O)O | 148 to 150 °C
91 | O=C(O)C(Oc1ccc(Br)cc1F)c1ccccc1 (stereo not drawn) | 104 to 106 °C
92 | NS(=O)(=O)c1ccc(-c2ccc(Br)cc2)cc1 | 207 to 209 °C
93 | Brc1ccc(-n2cnnn2)cc1 | 180 to 182 °C
94 | c1cnc2[nH]cc(C3CCNCC3)c2c1 | 159 to 161 °C
95 | CC1CN=C(Nc2cccc(S(=O)(=O)N(C)C)c2)S1 (stereo not drawn) | 111 to 113 °C
96 | CN1CCN(CCNCc2ccc(Br)cc2F)CC1 | 45 to 47 °C
97 | Cc1nc2sc3c(c2c(=O)n1N)CCCCC3 | 199 to 201 °C
98 | O=c1[nH]c(S)nn1-c1ccccc1 | 187 to 189 °C
99 | O=C(O)c1cnc2cc3c(cc2c1O)OCCO3 | 274 to 276 °C
100 | O=C(O)CCCOc1ccc(I)cc1 | 126 to 128 °C
101 | NC(=O)C1CCCC1N (stereo not drawn) | 123 to 125 °C
102 | O=C(O)c1cccc(-c2ncon2)c1 | 175 to 177 °C
103 | CC1CC(C)(C)NC1=O (stereo not drawn) | 77 to 79 °C
